The text below walks through data of patent US20120059024A1 (priority 2009, published 2012).

The conditions of data set [1]: in vivo, cited from earlier work.
A short description of data set [2]: Mean Equivalent Daily Dose (MEDD) conversion table for opioids. It is filed as in vivo.
Data set [3] has as its system young adult Wistar rats. The note with it: intraperitoneal.
The test system of data set [4] is human volunteers. Description: Human drug liking study. Conditions: any dose of oxycodone alone vs same dose combined with 100 mg flupirtine, oral capsule.

Where “and” joins values, the source holds several entries; their conditions need not be identical. Identical values can stand only once. Like-named read-outs stand apart in the source and are kept apart here.

For `COc1ccc2c3c1O[C@H]1[C@@H](O)C=C[C@H]4[C@@H](C2)N(C)CC[C@@]341` [Codeine], the MEDD-Factor in data set [1] (po) is 0.05; in data set [1] (sc) it was 0.1; in data set [1] it was 0.1 and 0.05.

For the compound `CC(=O)Oc1ccc2c3c1O[C@H]1[C@@H](OC(C)=O)C=C[C@H]4[C@@H](C2)N(C)CC[C@@]341` [Diamorphine], the MEDD-Factor in data set [1] (po) is on record as 0.65; in data set [1] (sc), 1.3.

As for `COc1ccc2c3c1O[C@H]1C(=O)CC[C@H]4[C@@H](C2)N(C)CC[C@]314` [Hydrocodone], the MEDD-Factor in data set [1] (po) was 0.4.

As for `CN1CC[C@]23CCCC[C@H]2[C@H]1Cc1ccc(O)cc13` [Levo-dromoran], the MEDD-Factor in data set [1] (sc) was 5; in data set [1], 0.25.

As to `CCOC(=O)C1(c2ccccc2)CCN(C)CC1` [Meperidine], the MEDD-Factor is on record as 0.1 in data set [1] (iv), 0.05 in data set [1] (po) and 0.1 in data set [1] (sc).

Consider `CCC(=O)C(CC(C)N(C)C)(c1ccccc1)c1ccccc1` (stereo not drawn) [Methadone], for which the MEDD-Factor in data set [1] (iv) was 8; in data set [1] (po), 4; in data set [1] (sc), 8.

`CN1CC[C@]23c4c5ccc(O)c4O[C@H]2[C@@H](O)C=C[C@H]3[C@H]1C5` [Morphine]: the “dose equivalent to a 100 mg dose of morphine administered orally” value in data set [2] (administered intravenously) was 40 mg. In addition, the results for the MEDD-Factor in data set [1] (iv), in data set [1] (po) and in data set [1] (sc) were 1, 0.4 and 1, respectively. For the same compound, in data set [3] (1.6 mg/kg morphine), the sedation result is on record as “not sedating”.

Consider `COc1ccc2c3c1O[C@H]1C(=O)CC[C@@]4(O)[C@@H](C2)N(C)CC[C@]314` [Oxycodone], for which the “dose equivalent to a 100 mg dose of morphine administered orally” value in data set [2] (orally administered) is on record as 63 mg. The “subject preference (drug liking)” value in data set [4] was “preferred to, or no less preferred to”. The values for the MEDD-Factor in data set [1] (po) and in data set [1] (sc) were 0.63 and 1.5, respectively.

As for `COc1cccc(C2(O)CCCCC2CN(C)C)c1` (stereo not drawn) [Tramadol], the MEDD-Factor is on record as 0.05 in data set [1] (po) and 0.1 in data set [1] (sc).

As for `CCOC(=O)Nc1ccc(NCc2ccc(F)cc2)nc1N` [flupirtine], the sedation entry is “non-sedating” in data set [3] (10 mg/kg flupirtine, criteria of Goodchild et al. 2008) and “sedating” in data set [3] (20 mg/kg flupirtine, criteria of Goodchild et al. 2008).
